Reference: publication PMC10458253, “Unraveling the In Vitro Toxicity Profile of Psychedelic 2C Phenethylamines and Their N-Benzylphenethylamine (NBOMe) Analogues” (Pharmaceuticals, 2023)

How the values were obtained:
HepG2 cells = test: Neutral red uptake cytotoxicity assay, HepG2; format: cell-based; conditions: HepG2, 24 h; for Top (maximal effect): maximum cell death of fitted curve; for EC50: Homo sapiens, cell death curves 0–2000 µM, read-out: EC50 (half-maximum-effect concentrations)
Description: HepG2 cells were acquired from the American Type Culture Collection (Manassas, VA, USA). Cells were cultured in 75 cm^2 flasks using DMEM—high glucose supplemented with a 10% heat inactivated FBS and 1% penicillin/streptomycin mixture, and maintained in a 5% CO2–95% air atmosphere, at 37 °C, until 80% confluence. Cells were routinely subcultured using trypsin-EDTA and, to avoid phenotypic alterations, used between passages 16 and 22. In all experiments, the cells were seeded at a density of 250,000 cells/cm^2 and used 24 h after seeding.
Neutral red uptake and resazurin reduction assays were performed after exposure of differentiated SH-SY5Y and HepG2 cells to the drugs under study. To obtain a concentration–response curve, a broad concentration range (0–2000 µM) was investigated, and cytotoxicity was evaluated 24 h after exposure in 96-well cell culture plates. As previously described, neutral red uptake assay is based on the incorporation of neutral red dye into the lysosomes of viable cells and the amount of dye incorporated represents the cells’ lysosomal functionality, and resazurin reduction assay is based on the irreversible reduction of resazurin dye to the fluorescent resorufin product by metabolically active cells.
Briefly, 24 h after being exposed to different concentrations of the compounds, differentiated SH-SY5Y cells were incubated with either neutral red (50 µg/mL) or resazurin (10 µg/mL) solutions for 90 min, at 37 °C, in a 5% CO2–95% air atmosphere. For HepG2 cells, 24 h after the exposure to the tested drugs, the cells were incubated with either neutral red (50 µg/mL) or resazurin (10 µg/mL) solutions for 45 and 60 min, respectively, at 37 °C, in a 5% CO2–95% air atmosphere.
In the neutral red uptake assay, at the end of the incubation period, the cell culture medium was removed and a solution of absolute ethyl alcohol/distilled water (1:1) with 5% acetic acid was added to extract the dye absorbed only by the viable cells. The absorbance was measured at 540 nm in a multi-well plate reader (PowerWaveX BioTek Instruments, Winooski, VT, USA). In the resazurin assay, at the end of the incubation period, the fluorescence was measured at 530 nm excitation and 590 nm emission wavelengths in a multi-well plate reader (PowerWaveX BioTek Instruments, Winooski, VT, USA).
The results were expressed as a percentage of control cells. At least four independent experiments were performed, in triplicate. For differentiated SH-SY5Y cells, the neutral red uptake assay was identified as the most sensitive assay and, therefore, used for the subsequent experiments. On the other hand, for HepG2 cells, the resazurin reduction assay was identified as the most sensitive assay and, therefore, used for the subsequent experiments.

[1] = test system: differentiated SH-SY5Y cells; test: Effect of CYP inhibitors on drug cytotoxicity (neutral red uptake), differentiated SH-SY5Y; format: cell-based; conditions: 24 h, drug concentrations as given in the source; for change of neutral red uptake with ketoconazole vs drug alone: 10 μM ketoconazole (CYP3A4 inhibitor); for change of neutral red uptake with quinidine vs drug alone: 10 μM quinidine (CYP2D6 inhibitor); for change of neutral red uptake with ABT vs drug alone: 1000 μM ABT (non-selective CYP inhibitor)
Description: Differentiated SH-SY5Y cells were incubated with the drugs in the presence or absence of different CYP inhibitors: 1000 μM ABT, a non-selective CYP inhibitor, 10 μM quinidine, a specific CYP2D6 inhibitor, or 10 μM ketoconazole, a specific CYP3A4 inhibitor.
CYP inhibition assay was used to evaluate the drugs’ potential to inhibit drug-metabolizing enzymes. Accordingly, SH-SY5Y and HepG2 cells were seeded in 96-well cell culture plates and pre-incubated with 1000 µM ABT—a non-isoform specific CYP450 inhibitor, 10 µM quinidine—a CYP2D6 inhibitor or 1 µM ketoconazole—a CYP3A4 inhibitor. After 1 h, the drugs (0–500 µM) were co-incubated with the inhibitors for 24 h, at 37 °C, in a 5% CO2–95% air atmosphere. The drugs’ cytotoxicity was then assessed through the neutral red uptake assay for differentiated SH-SY5Y cells, and through the resazurin reduction assay for HepG2 cells, and the results were expressed as percentage of control cells. At least four independent experiments were performed, in triplicate.

hMAO-A = molecular target: T1, hMAO-A (Homo sapiens, UniProt P21397); test: hMAO-A inhibitory activity assay (kynuramine); format: biochemical; conditions: read-out: % inhibition at 10 µM hMAO-A, kynuramine substrate
T1 construct: purchased Sigma Aldrich; host or cells: insect cells (BTI-TN-5B1-4), recombinant baculovirus
T1 sequence (P21397 1-527): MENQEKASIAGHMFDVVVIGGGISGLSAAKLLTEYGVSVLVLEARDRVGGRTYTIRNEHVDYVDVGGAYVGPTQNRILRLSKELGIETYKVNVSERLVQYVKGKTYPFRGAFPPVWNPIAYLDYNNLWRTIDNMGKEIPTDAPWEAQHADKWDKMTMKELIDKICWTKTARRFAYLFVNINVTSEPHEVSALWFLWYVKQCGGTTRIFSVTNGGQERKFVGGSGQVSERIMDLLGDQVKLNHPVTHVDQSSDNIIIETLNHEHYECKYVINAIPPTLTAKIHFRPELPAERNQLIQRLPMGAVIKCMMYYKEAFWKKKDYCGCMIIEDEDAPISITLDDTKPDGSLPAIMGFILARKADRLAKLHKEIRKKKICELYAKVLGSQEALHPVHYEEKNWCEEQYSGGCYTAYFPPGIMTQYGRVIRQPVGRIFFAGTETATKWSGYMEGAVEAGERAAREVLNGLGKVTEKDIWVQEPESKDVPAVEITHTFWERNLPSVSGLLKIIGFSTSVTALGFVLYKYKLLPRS
Description: (§1) The hMAO inhibitory activities were assessed in microsomal MAO isoforms, prepared from insect cells (BTI-TN-5B1-4) infected with recombinant baculovirus containing cDNA inserts for hMAO-A or hMAO-B, by measuring the enzymatic conversion rates of kynuramine into 4-hydroxyquinoline. […] All assays were performed in sodium phosphate buffer solution 50 mM pH 7.4.
(§2) The percentages of MAO inhibition of each compound were determined from three independent experiments performed in triplicate.

hMAO-B = molecular target: T2, hMAO-B (Homo sapiens, UniProt P27338); test: biochemical; conditions: read-out: % inhibition at 10 µM hMAO-B, kynuramine substrate
T2 construct: purchased Sigma Aldrich; host or cells: insect cells (BTI-TN-5B1-4), recombinant baculovirus
T2 sequence (P27338 1-520): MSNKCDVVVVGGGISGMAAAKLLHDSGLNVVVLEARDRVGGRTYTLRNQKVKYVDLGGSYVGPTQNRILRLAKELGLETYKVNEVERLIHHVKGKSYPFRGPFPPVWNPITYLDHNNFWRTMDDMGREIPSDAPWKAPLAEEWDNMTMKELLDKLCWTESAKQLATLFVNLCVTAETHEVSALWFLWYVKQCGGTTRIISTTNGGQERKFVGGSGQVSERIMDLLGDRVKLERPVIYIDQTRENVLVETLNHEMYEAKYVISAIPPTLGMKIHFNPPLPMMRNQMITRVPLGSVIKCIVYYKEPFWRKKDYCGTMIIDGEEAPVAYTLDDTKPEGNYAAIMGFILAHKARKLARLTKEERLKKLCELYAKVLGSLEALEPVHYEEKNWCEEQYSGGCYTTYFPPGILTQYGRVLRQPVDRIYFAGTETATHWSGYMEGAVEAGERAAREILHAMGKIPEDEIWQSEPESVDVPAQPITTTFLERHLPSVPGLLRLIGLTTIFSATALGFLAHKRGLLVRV
Description: as §1, §2

Row | Structure (SMILES) | Bottom (baseline) (HepG2 cells) | Hill Slope (HepG2 cells) | Top (maximal effect) (HepG2 cells) | EC50 (HepG2 cells) [µM] | change of neutral red uptake with ketoconazole vs drug alone [1] | change of neutral red uptake with quinidine vs drug alone [1] | inhibition at 10 µM (hMAO-A) [%] | inhibition at 10 µM (hMAO-B) [%] | change of neutral red uptake with ABT vs drug alone [1] | cytotoxicity (in words) (HepG2 cells; 0–2000 µM)
1 | COc1cc(CCN)c(OC)cc1Br [2C-B, 4-Bromo-2,5-dimethoxy-β-phenethylamine] | 5.433 | 5.413 | 95.01 | 257 | small but significant decrease in neutral red uptake | significant decrease in the neutral red uptake | 17.5 | 27.2 |  | 
2 | COc1cc([N+](=O)[O-])c(OC)cc1CCN [2C-N, 2,5-dimethoxy-4-nitrophenethylamine] | 7.328 | 4.340 | ≈100 | 960 |  | significant decrease in the neutral red uptake | 5.8 | 18 | significant increase in neutral red uptake | 
3 | COc1cc(CCNCc2ccccc2OC)c(OC)cc1Br [25B-NBOMe, 4-Bromo-2,5-dimethoxy-N-(2-methoxybenzyl)-β-phenethylamine] | 4.279 | 2.442 | ≈100 | 34.7 |  | significant decrease in the neutral red uptake | 15 | 33.9 |  | 
4 | COc1cc([N+](=O)[O-])c(OC)cc1CCNCc1ccccc1OC [25N-NBOMe, 4-Nitro-2-dimethoxy-N-(2-methoxybenzyl)-β-phenethylamine] | 7.254 | 6.518 | 94.13 | 115 | small but significant decrease in neutral red uptake | significant decrease in the neutral red uptake | 8.9 | 25.5 | significant decrease in neutral red uptake | 
5 | COc1cc(CCN)cc(OC)c1OC.Cl [Mescaline, 3,4,5-Trimethoxyphenethylamine hydrochloride] |  |  |  |  | small but significant decrease in neutral red uptake | significant decrease in the neutral red uptake | 2.5 | 21.2 |  | not causing a significant cytotoxicity
6 | COc1ccccc1CNCCc1cc(OC)c(OC)c(OC)c1 [Mescaline-NBOMe, 3,4,5-Trimethoxy-N-(2-methoxybenzyl)-β-phenethylamine] | 2.853 | 3.666 | 98.25 | 476 | small but significant decrease in neutral red uptake | significant decrease in the neutral red uptake | 3.9 | 89 | significant decrease in neutral red uptake | 
